Values of other authors in patent US20040142914A1, “Extended transdermal contraceptive regimens” (priority 2002, published 2004).

Details: humans

share of norgestimate converted to norelgestromin in vivo: ≥ 80%
SMILES: C#C[C@]1(OC(C)=O)CC[C@H]2[C@@H]3CCC4=CC(=NO)CC[C@@H]4[C@H]3CC[C@@]21CC (mixture of isomers) [norgestimate]
